The test has as its target DNA polymerase beta (Homo sapiens, UniProt P06746). The experiment in a line: Inhibition of DNA polymerase beta lyase activity by deoxyribose phosphate excision assay.
With `CC(=O)OC[C@@]1(C)[C@@H]2CC[C@]3(C)[C@H](CC=C4[C@@H]5CC(C)(C)CC[C@]5(C(=O)O)[C@@H](OC(C)=O)C[C@]43C)[C@@]2(C)CC[C@@H]1OC(C)=O`, the IC50 was 13 µM.
For the compound `CC[C@H](CC[C@@H](C)[C@H]1CC[C@H]2[C@@H]3CC=C4C[C@@H](O)CC[C@]4(C)[C@H]3CC[C@]12C)C(C)C` [BETA-SITOSTEROL], inhibition was half-maximal at 26.3 µM (IC50).
`CC1(C)CC[C@]2(C(=O)O)CC[C@]3(C)C(=CC[C@@H]4[C@@]5(C)CC[C@H](O)C(C)(C)[C@@H]5CC[C@]43C)[C@@H]2C1` [OLEANOLIC_ACID] had a half-inhibitory concentration (IC50) of 8.8 µM. This IC50 is about 3-fold lower than that of the compound before.
`CC[C@H](/C=C/[C@@H](C)[C@H]1CC[C@H]2[C@@H]3CC=C4C[C@@H](O)CC[C@]4(C)[C@H]3CC[C@]12C)C(C)C` [STIGMASTEROL] had an IC50 of 43.4 µM. This IC50 is about 4.9-fold higher than that of the compound before.

The term IC50 denotes the concentration at which inhibition is half-maximal. Lower therefore signals higher potency.
